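Results reflect a 48-hour exposure of cells in 96-well plates to compound at five concentrations. GI50 = concentration required for 50% inhibition of growth.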 Calls of active or inactive are those of the source. Rule as the data show it: active = GI50 up to about 1.1 µM and inactive = higher.
Key:
Test in all cases: growth of human tumour cells (NCI), 48 h
MDA-MB-435 = system: MDA-MB-435
SK-MEL-2 = system: SK-MEL-2
UO-31 = system: UO-31
LOX IMVI = system: LOX IMVI
NCI-H23 = system: NCI-H23
RXF 393 = system: RXF 393
CCRF-CEM = system: CCRF-CEM
T47D = system: T47D
CAKI-1 = system: CAKI-1
HT-29 = system: HT-29
SK-MEL-28 = system: SK-MEL-28
COLO 205 = system: COLO 205
OVCAR-4 = system: OVCAR-4
K562 = system: K562
A498 = system: A498
MCF7 = system: MCF7
HOP-92 = system: HOP-92

Measured: GI50

Cc1cc(C)nc(NC(=S)Nc2cccc(Cl)c2)c1
inactive: MDA-MB-435 > 100 µM | SK-MEL-2 > 100 µM | UO-31 > 100 µM | LOX IMVI > 100 µM | NCI-H23 > 100 µM | RXF 393 > 100 µM | CCRF-CEM > 20 µM | T47D > 88.3 µM | CAKI-1 20.3 µM | HT-29 > 83.4 µM | SK-MEL-28 > 100 µM | COLO 205 > 80.9 µM | OVCAR-4 > 36.6 µM | K562 > 100 µM | A498 > 47.3 µM

O=C(NN=C1NCCCN1)c1ccco1
inactive: MDA-MB-435 > 100 µM | SK-MEL-2 > 100 µM | UO-31 > 100 µM | LOX IMVI > 100 µM | NCI-H23 > 100 µM | RXF 393 > 100 µM | CCRF-CEM > 100 µM | T47D > 100 µM | HT-29 > 100 µM | SK-MEL-28 > 100 µM | MCF7 > 100 µM | COLO 205 > 100 µM | OVCAR-4 > 100 µM | K562 > 100 µM | HOP-92 > 100 µM

CCOC(=O)/C=C1/Nc2cc(F)c(F)cc2NC1=O
inactive: MDA-MB-435 > 100 µM | SK-MEL-2 > 100 µM | UO-31 > 100 µM | LOX IMVI > 100 µM | NCI-H23 > 100 µM | RXF 393 > 100 µM | CCRF-CEM > 100 µM | CAKI-1 > 100 µM | HT-29 > 100 µM | SK-MEL-28 > 100 µM | MCF7 > 100 µM | COLO 205 > 100 µM | OVCAR-4 > 100 µM | K562 > 100 µM | HOP-92 > 100 µM

COc1ccc([C@H]2[C@H](C)C3=Nc4ccccc4CN32)cc1
inactive: MDA-MB-435 31.4 µM | SK-MEL-2 > 100 µM | UO-31 > 100 µM | LOX IMVI 39.8 µM | NCI-H23 69.8 µM | RXF 393 > 100 µM | CAKI-1 > 100 µM | HT-29 35.8 µM | SK-MEL-28 33.2 µM | MCF7 59.7 µM | COLO 205 45.1 µM | OVCAR-4 > 100 µM | K562 39.2 µM | HOP-92 56.5 µM | A498 > 100 µM

CCN(CC)C(=O)Cn1c2c(c3ccccc31)CCCC2
inactive: MDA-MB-435 91.4 µM | SK-MEL-2 > 100 µM | UO-31 23.2 µM | LOX IMVI > 100 µM | NCI-H23 45.4 µM | CCRF-CEM 89.3 µM | CAKI-1 57 µM | HT-29 > 100 µM | SK-MEL-28 > 100 µM | MCF7 > 100 µM | COLO 205 > 100 µM | OVCAR-4 > 10 µM | K562 68.4 µM | HOP-92 > 100 µM | A498 > 100 µM

CCOC(=O)c1c(SCC#N)n(-c2ccccc2)c(=S)n(-c2ccccc2)c1=O
inactive: MDA-MB-435 38.7 µM | SK-MEL-2 39.5 µM | UO-31 37.5 µM | LOX IMVI 14.7 µM | NCI-H23 45.7 µM | CCRF-CEM 13.5 µM | T47D 44 µM | CAKI-1 > 100 µM | HT-29 41.2 µM | SK-MEL-28 57.9 µM | MCF7 37.8 µM | COLO 205 61.7 µM | OVCAR-4 40.7 µM | K562 18.2 µM | HOP-92 43.9 µM

Nc1nc(Cl)cc(OCC2(CO)CCCC2)n1
inactive: MDA-MB-435 > 100 µM | LOX IMVI > 100 µM | NCI-H23 > 100 µM | RXF 393 79.8 µM | CCRF-CEM > 100 µM | HT-29 > 100 µM | SK-MEL-28 > 100 µM | MCF7 > 100 µM | OVCAR-4 > 100 µM | K562 > 100 µM | HOP-92 > 100 µM | A498 > 100 µM

O=S(=O)(O)c1ccc2c(/N=N\c3ccc(F)cc3)c(O)c(S(=O)(=O)O)cc2c1
inactive: MDA-MB-435 > 100 µM | SK-MEL-2 > 100 µM | UO-31 > 100 µM | LOX IMVI > 100 µM | NCI-H23 > 100 µM | RXF 393 > 100 µM | CCRF-CEM > 100 µM | T47D > 100 µM | CAKI-1 > 100 µM | HT-29 > 100 µM | SK-MEL-28 > 100 µM | COLO 205 > 100 µM | OVCAR-4 > 100 µM | K562 > 100 µM | HOP-92 > 100 µM | A498 > 100 µM

CC(=O)C1=CN=C2C(=O)N(c3ccccc3)N(C)C12C (stereo unspecified)
inactive: MDA-MB-435 > 100 µM | SK-MEL-2 > 100 µM | UO-31 > 100 µM | LOX IMVI > 100 µM | NCI-H23 > 100 µM | RXF 393 > 100 µM | CCRF-CEM > 100 µM | CAKI-1 > 100 µM | MCF7 > 100 µM | COLO 205 > 100 µM | OVCAR-4 > 100 µM | K562 > 100 µM | HOP-92 > 100 µM | A498 > 100 µM

O=C1C(=Cc2ccc(O)cc2)N=C(c2ccccc2)N1n1c(-c2ccccc2)nc2ccccc2c1=O
inactive: MDA-MB-435 > 100 µM | UO-31 > 100 µM | LOX IMVI > 100 µM | NCI-H23 71.6 µM | CCRF-CEM 32 µM | T47D 49.8 µM | CAKI-1 > 100 µM | HT-29 72.8 µM | SK-MEL-28 88.9 µM | MCF7 30.9 µM | COLO 205 > 100 µM | K562 > 10 µM

O=C(c1cc(Cl)ccc1Cl)N1CCN(C(=O)c2cc(Cl)ccc2Cl)CC1
inactive: UO-31 > 100 µM | LOX IMVI > 100 µM | NCI-H23 > 100 µM | RXF 393 67.1 µM | CCRF-CEM > 100 µM | T47D 48.8 µM | CAKI-1 97.9 µM | HT-29 > 100 µM | SK-MEL-28 > 100 µM | MCF7 > 100 µM | OVCAR-4 > 100 µM | K562 > 100 µM | HOP-92 67.1 µM | A498 27 µM

CC(=O)/N=C1\NC(=O)/C(=C/c2ccccc2Cl)N1C
inactive: MDA-MB-435 > 100 µM | SK-MEL-2 > 100 µM | UO-31 > 100 µM | LOX IMVI > 100 µM | NCI-H23 > 100 µM | RXF 393 > 100 µM | CCRF-CEM > 100 µM | CAKI-1 > 100 µM | HT-29 > 100 µM | SK-MEL-28 > 100 µM | MCF7 > 100 µM | COLO 205 > 100 µM | OVCAR-4 > 100 µM | HOP-92 > 100 µM

Cc1nc2ccc(S(=O)(=O)Nc3ccc(Cl)cc3)cc2c(=O)n1NC(=O)CNc1ccc(Cl)cc1
inactive: MDA-MB-435 > 100 µM | SK-MEL-2 > 100 µM | UO-31 > 100 µM | LOX IMVI > 100 µM | NCI-H23 > 100 µM | CCRF-CEM > 100 µM | CAKI-1 > 100 µM | HT-29 > 100 µM | SK-MEL-28 > 100 µM | MCF7 > 100 µM | COLO 205 > 100 µM | OVCAR-4 > 100 µM | K562 > 100 µM | HOP-92 > 100 µM

OCCc1ccsc1-c1sc(-c2cc(CCO)c(-c3sccc3CCO)s2)cc1CCO
inactive: MDA-MB-435 17.7 µM | SK-MEL-2 14.7 µM | UO-31 12.4 µM | LOX IMVI 5.45 µM | NCI-H23 15.8 µM | RXF 393 2.77 µM | CCRF-CEM 16.4 µM | CAKI-1 22.8 µM | SK-MEL-28 18.5 µM | MCF7 15.7 µM | COLO 205 11.6 µM | OVCAR-4 15.6 µM | K562 7.94 µM | HOP-92 11.6 µM | A498 22.5 µM
